Results reported in article PMC8199216 (International Journal of Molecular Sciences, 2021).
Several values for one entry are separate records, joined by “and”; a condition that tells them apart may be missing. Equal values may be shown once.

Columns and labels:
GLP (982–1266) = biological target: T1, GLP (982–1266) (Homo sapiens, UniProt Q9H9B1); experiment: Coupled enzyme fluorescent histone methyltransferase assay (SAM-SAH conversion); format: biochemical; details: fluorescence based coupled enzyme assay
T1 construct: GLP (982–1266) were cloned, expressed, and purified; made in house
T1 sequence (Q9H9B1 982-1266): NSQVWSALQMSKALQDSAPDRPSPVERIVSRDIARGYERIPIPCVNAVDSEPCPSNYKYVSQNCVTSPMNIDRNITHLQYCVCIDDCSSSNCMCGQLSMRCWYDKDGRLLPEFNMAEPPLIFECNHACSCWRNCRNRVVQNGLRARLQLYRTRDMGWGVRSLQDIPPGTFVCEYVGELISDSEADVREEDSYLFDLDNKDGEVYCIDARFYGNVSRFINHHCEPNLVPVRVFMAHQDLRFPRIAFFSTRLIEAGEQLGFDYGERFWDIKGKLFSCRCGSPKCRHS
Protocol: (§1) Full length of S. solfataricus S-adenosylhomocysteine hydrolase (SAHH) was cloned, expressed, and purified using the published protocol.
(§2) The assay was performed using the previously published protocol. Tested compounds were pre-dissolved in assay buffer (20 mM HEPES pH 7.5, 50 mM NaCl, 0.01% Triton X-100, 3 mM MgCl2, 0.1 mg/mL BSA) with 5 μM of purified SAHH, 1 unit of ADA, 10 μM of H3, and 5 nM of either G9a or GLP as 30 μL in black 96-well plate. […] After incubation for 10 min at room temperature, thiol fluorescent probe IV (20 μM, 50 μL) was added.

Human G9a (913–1193) = biological target: T2, Human G9a (913–1193) (Homo sapiens, UniProt Q96KQ7); experiment: as above; format: biochemical; details: fluorescence based coupled enzyme assay
T2 construct: Catalytic domains of Human G9a (913–1193); made in house
T2 sequence (Q96KQ7 913-1193): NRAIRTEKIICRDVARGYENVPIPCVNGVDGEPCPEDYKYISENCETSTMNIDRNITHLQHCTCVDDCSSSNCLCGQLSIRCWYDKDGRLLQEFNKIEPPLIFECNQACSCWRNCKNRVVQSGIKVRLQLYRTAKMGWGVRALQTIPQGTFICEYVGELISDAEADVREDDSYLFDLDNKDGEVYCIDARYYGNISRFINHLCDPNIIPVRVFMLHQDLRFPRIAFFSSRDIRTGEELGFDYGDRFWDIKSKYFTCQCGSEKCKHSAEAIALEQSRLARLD
Protocol: as §1, §2

His-Spindlin1(49–262) [1] = biological target: T3, His-Spindlin1(49–262) (Homo sapiens, UniProt Q9Y657); experiment: biochemical
Protocol: (§3) To investigate the influence of these modifications on the Spindlin1 inhibitory activity, the fluorescence polarization assay established earlier [31] was used to determine the potency of the compounds.
(§4) Fluorescence polarization assays were carried out as described before [31]. […] For the controls, a buffer solution with the same DMSO concentration as the inhibitor solutions was added to the plate instead of the inhibitor solution, the negative control contained the H3(1–14)K4me3-Fluorescein without Spindlin1. The blank control contained buffer solution with DMSO. Every inhibitor concentration and the controls were done in triplicates. Fluorescence polarization values (mP) were determined after blank correction as IS−G×IP/IS+G×IP×1000 , where G is a device-specific factor and IS and IP are the fluorescence intensities of the S and P plane, respectively. […] Curve fitting was carried out using GraphPad Prism 7, applying a non-linear sigmoidal fit with a variable slope.

His-Spindlin1(49–262) [2] = biological target: T3, His-Spindlin1(49–262); details: fluorescence polarization
Protocol: as §3, §4

[3] = read-out: Spin1 inhibition in percentage at specified concentration

T3 sequence (Q9Y657 49-262): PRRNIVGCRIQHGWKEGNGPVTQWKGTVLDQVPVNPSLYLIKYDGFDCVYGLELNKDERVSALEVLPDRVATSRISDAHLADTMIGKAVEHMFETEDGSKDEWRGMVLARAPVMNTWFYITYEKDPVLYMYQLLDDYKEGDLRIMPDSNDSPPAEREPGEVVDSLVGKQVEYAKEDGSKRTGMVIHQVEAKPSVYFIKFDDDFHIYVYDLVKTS

| Structure (SMILES) | IC50 (Spindlin1 (Spin1)) | IC50 (G9a) | IC50 (GLP) | IC50 (GLP (982–1266)) [µM] | IC50 (Human G9a (913–1193)) [µM] | IC50 (His-Spindlin1(49–262) [1]) [µM] | Spindlin1 inhibitory activity (in words) (His-Spindlin1(49–262) [2]) | further results |
| --- | --- | --- | --- | --- | --- | --- | --- | --- |
| COc1cc2c(cc1OCCCN1CCC(O)C1)N=C(N)C21CCCC1 (stereo not shown) | (S): 478 ± 34 | – | – | – | – | – | – | – |
| COc1cc2c(cc1OCCCN1CCC(O)C1)N=C(N)C21CCCC1 (racemic) | (rac): 584 ± 31 | (rac): 2321 | (rac): 4432 | – | – | – | – | – |
| COc1cc2c(cc1OCCCN1CCC(O)C1)N=C(N)C21CCCC1 (racemic) [1q (rac)] | – | – | – | 4.43 | 2.32 | 0.584 | – | – |
| CCOc1c(OCCCN2CCCC2)cc2c(c1OCC)C1(CCCC1)C(N)=N2 [1a] | – | – | – | – | – | – | weakly active | % inhibition at 25 μM (Spindlin1 (Spin1)): 70% @ 25 μM [d]; inhibition at 25 µM (His-Spindlin1(49–262) [1]; [3]): 70% |
| COc1cc2c(cc1OCCCN1CCC(=O)C1)N=C(N)C21CCCC1 [1b] | – | – | – | – | – | – | weakly active | % inhibition at 100 μM (Spindlin1 (Spin1)): 81% @ 100 μM [d]; inhibition at 100 µM (His-Spindlin1(49–262) [1]; [3]): 81% |
| COc1cc2c(cc1OCCCCN1CCCC1)N=C(N)C21CCCCC1 [1c] | – | > 20 µM | > 20 µM | > 20 | > 20 | – | inactive | % inhibition at 50 μM (Spindlin1 (Spin1)): 42% @ 50 μM [d]; inhibition at 50 µM (His-Spindlin1(49–262) [1]; [3]): 42% |
| COc1cc2c(cc1OCCN1CCCC1)N=C(N)C21CCCCC1 [1d] | – | – | – | – | – | – | Inactive | – |
| COc1cc2c(cc1OCCN1CCCC1)N=C(N)C21CCC1 [1e] | – | – | – | – | – | – | Inactive | – |
| COc1cc2c(cc1OCCCN1CCCC1)N=C(N)C21CCCC1 [1f] | – | 0.431 µM | 0.334 µM | 0.334 | 0.431 | – | – | – |
| CCOc1cc2c(cc1OCCCN1CCCC1)N=C(N)C21CCCC1 [1g] | – | 0.243 µM | 2.97 µM | 2.97 | 0.243 | – | – | – |
| COc1c(OCCCN2CCCC2)cc2c(c1C#N)C1(CCCC1)C(N)=N2 [1h] | 3.9 µM | – | – | – | – | 3.9 ± 0.7 | – | – |
| COc1c(OCCCN2CCCC2)cc2c(c1Cl)C1(CCCC1)C(N)=N2 [1i] | 1.6 µM | > 20 µM | > 20 µM | > 20 | > 20 | 1.6 ± 0.2 | – | – |
| COc1c(OCCCN2CCCC2)cc2c(c1OC)C1(CCCC1)C(N)=N2 [1j] | 2.5 µM | – | – | – | – | 2.5 ± 0.2 | – | – |
| COc1c(OCCCN2CCCC2)cc2c(c1C(C)=O)C1(CCCC1)C(N)=N2 [1k] | 11.8 ± 0.21 µM | – | – | – | – | 11.8 | – | – |
| CCOc1cc2c(cc1OCCCN1CCCC1)N=C(N)C21CCCCC1 [1l] | 0.567 µM | – | – | – | – | 0.567 ± 0.035 | – | – |
| CC(C)Oc1cc2c(cc1OCCCN1CCCC1)N=C(N)C21CCC1 [1m] | 3.3 µM | – | – | – | – | 3.3 ± 0.47 | micromolar range | – |
| COc1cc2c(cc1OCCCN1CCCC1)N=C(N)C21CCCCC1 [1n] | 0.255 µM | 0.779 µM | 0.527 µM | 0.527 | 0.779 | 0.255 ± 0.035 | – | – |
| CCC1(CC)C(N)=Nc2cc(OCCCN3CCCC3)c(OC)cc21 [1o] | 1.21 µM and 1.21 ± 0.09 µM | > 20 µM | > 20 µM | > 20 | > 20 | 1.21 ± 0.09 | – | – |
| COc1cc2c(cc1OCCCN1CCCC1)N=C(N)C2(C)C [1p] | 0.157 µM | 0.759 µM | 0.47 µM | 0.47 | 0.759 | 0.157 ± 0.012 | – | – |
| COc1cc2c(cc1OCCCN1CC[C@@H](O)C1)N=C(N)C21CCCC1 [1q (R)] | (R): 470 ± 27 | – | – | – | – | 0.47 | – | – |
| COc1cc2c(cc1OCCCN1CC[C@H](O)C1)N=C(N)C21CCCC1 [1q (S)] | – | – | – | – | – | 0.478 | – | – |
| CCC1(C)C(N)=Nc2cc(OCCCN3CCCC3)c(OC)cc21 (stereo not shown) [1r] | 0.408 µM | 3.19 µM | 3.19 µM | 3.18 | 3.19 | 0.408 ± 0.035 | – | – |
| CCC1(C)C(N)=Nc2cc(OCCCN3Cc4ccccc4C3)c(OC)cc21 (stereo not shown) [1s] | 0.36 µM | > 20 µM | > 20 µM | > 20 | > 20 | 0.36 ± 0.02 | nanomolar range | – |
| CCC1(C)C(N)=Nc2cc(OCCCN3CC[C@@H](C)C3)c(OC)cc21 (stereo partly shown) [1t] | 0.467 µM | > 20 µM | > 20 µM | > 20 | > 20 | 0.467 ± 0.015 | nanomolar range | – |
| COc1cc2c(cc1OCCCN1CCC(CO)C1)N=C(N)C21CCCC1 (stereo not shown) [1u] | 1.25 µM | > 20 µM | > 20 µM | > 20 | > 20 | 1.25 ± 0.05 | – | – |
